# Data reported in patent US20040033944A1, “Method of treating erectile dysfunction” (priority 1999, published 2004).
# Where two headings read alike, the source gives them in different places.
# Key:
# VEGF in corporal tissue = tested on: VEGF in corporal tissue
# Procedure: Animals: 36 New Zealand White rabbits were fed either a normal rabbit diet (n=12) or a 1% cholesterol diet (n=24) (Harland Teklab, Madison, Wis.) for a total of 7.5 weeks. […] Ten days after the injection, the rabbits were euthanized and underwent penectomy with meticulous dissection of the corpora cavernosa from the tunica albuginia. Total serum cholesterol was determined prior to the initiation of the experimental diet and immediately prior to the procedure.
# Frozen corporal tissues were sonicated in 50 mM Tris radioimmunoprecipation assay buffer for 1 minute for protein isolation. […] The samples were quantified with a Molecular Devices Kinetic microplate reader using Apple SoftMax software. One ELISA was performed for each animal in each treatment group.
# Statistical evaluation. Data are expressed as the mean standard error of the mean (SEM). […] Statistical significance was determined at the 0.05 level.
# [1] = tested on: VEGF protein expression in corporal tissue; details: for VEGF immunoexpression: IC VEGF 0.9 mg, mean±SEM
# Procedure: (§1) Animals: Male New Zealand White rabbits weighing 2.5-3 kg were fed either a normal rabbit diet (n=12) or a 1% cholesterol diet (n=12) (Harland Teklab, Madison, Wis.) for a total of 7.5 weeks. […] Ten days after the injection, the rabbits were euthanized and underwent penectomy with meticulous dissection of the corpora cavernosa from the tunica albuginia. Total serum cholesterol was determined using the enzymatic method prior to the initiation of the experimental diet and on serum samples drawn immediately prior to the procedure. Animal care and handling complied with published Guidelines (Institute of Laboratory Animal Resources, Commission on Life Sciences, National Research Council. Guide for the Care and Use of Laboraiton Animals. Washington: National Academy Press (1996)).
# (§2) Statistical evaluation. Each treatment group contained 6 animals (corporal strip n=12). Data are expressed as the mean±standard error of the mean (SEM). The responses of strips from each treatment group to acetylcholine or sodium nitroprusside were compared using the independent samples T-Test. […] The ED50 (sensitivity) and the maximal response were the principal outcomes assessed for each agent, and adjusting for multiple comparisons each outcome was assessed at the 0.025 level. Secondary outcomes, including cholesterol level, and the ED25 and the ED75 for each agent were tested at the 0.05 level without adjustment for multiple comparisons.
# (§3) The route of administration can affect the efficacy of treatments for erectile dysfunction, as is seen in the difference between intrauretheral and intracavernosal alprostadil. […] Ten days after injection isometric tension studies were performed on corporal tissue. Sensitivity and maximal relaxation to acetylcholine (ACH) and sodium nitroprusside (SNP) were compared between treatment groups.
# (§4) Ten days after injection, their corpora cavernosa were harvested, and isometric tension studies were performed. Relaxation to acetylcholine (ACH) and sodium nitroprusside (SNP) was compared within each group.
# [2] = tested on: trabecular smooth muscle content of corporal tissue; details: cholesterol-fed rabbits
# Procedure: as §1
# as §2, with “Secondary outcomes, including cholesterol level, and the ED25 and the ED75 for each agent were tested at the 0.05 level without adjustment for multiple comparisons.” left out
# [3] = tested on: corpora cavernosa smooth muscle; details: hypercholesterolemic rabbits, three weekly intracavernosal injections of VEGF
# Procedure: Fifteen male New Zealand White rabbits weighing 2 to 2.5 kg were used in a total of two arms in the study. […] Random serum total cholesterol levels were measured at the beginning of the study and after four weeks of the 1% cholesterol diet. At the end of four weeks, each rabbit underwent total penectomy and then was sacrificed. Each penis yielded two strips of tissue with a small amount of erectile tissue being placed in neutral buffered formalin 10%. The strips were suspended in tissue baths, and isometric tension studies were performed. Dose-response curves for norepinephrine were generated first in each strip to assess adrenergic-mediated cavernosal smooth muscle contraction. Next, dose-response curves for histamine were generated to assess histamine receptor mediated contraction of cavernosal smooth muscle. Submaximal contraction was then produced with 10^−3 concentration of norepinephrine and dose-response curves were then generated to evaluate endothelial-dependent (acetylcholine) smooth muscle relaxation. Once again, a submaximal contraction was produced using 10^−5 concentration of norepinephrine and dose response curves were then generated to evaluate endothelial-independent (sodium nitroprusside) smooth muscle relaxation.
# Tissue. Cavernosal tissue procurement was performed under general anesthesia induced with Ketamine 50 mg/kg SC (Ketaset, Bristol Laboratories, Syracuse, N.Y.) and Xylazine 30 mg/kg SC (Rompun, Mobay Corp., Shawnee, Kans.). The penis was excised en bloc and placed in warm Krebs solution, where the corpora cavernosa were sharply dissected from the tunica albuginea producing a strip (approximately 0.3×0.3×0.7 cm.) from each corpus. The strips were then mounted in the oxygen tissue baths. After tissue collection, the rabbits were euthanized with an overdose of intravenous sodium pentobarbitol (100 mg/kg to effect). Care was taken throughout the procedure to minimize tissue manipulation.
# Tissue Chambers. Each cavernosal strip was placed in a 25 ml tissue bath (Kent Scientific Corp.. Litchfield, Conn.). One end was hooked to a tissue holder and the other end w as hooked to a force transducer (FTO3, Grass Instruments, Quincy, Mass.) for determination of isometric tension. The bath was filled with a modified Kreb's physiologic salt solution with the following millimolar composition: NaCl 122, KCl 4.7, MgCl2 1.2, CaCl2 2.5, NaHCO3 15.4, KH2PO4 1.2. and glucose 5.5. A circulating water bath kept tissue chamber temperatures at 37C. Continuous aeration with 95% oxygen and 5% carbon dioxide maintained a pH of 7.4.
# Optimal isometric tension determination. Each of the force transducers was connected to a transducer positioner enabling preload tension adjustment. Following suspension in the tissue chambers, the tension was periodically adjusted (at least every fifteen minutes) until the strip equilibrated at 0.5 gm. […] The optimal preload tension was then determined by contracting the tissue with 60 mM KCl Krebs solution (prepared by substituting 60 mM of sodium with equimolar amounts of potassium in Krebs-PSS solution) at increasing levels of preload (0.5 gm. increments). […] All subsequent testing was then performed at the determined optimal resting tension for each strip: Monitoring of tension was done with a four-channel polygraph (Grass 7D, Grass Instruments).
# Isometric tension studies. The tissue was washed with Kreb's solution every fifteen minutes after each study until the tissue returned to baseline (at least one hour). Dose response curves for norepinephrine were obtained by cumulative addition of norepinephrine (10^−9 to 10^−4) in logarithmic increments.
# adult rabbit penis = details: intracavernosal injections of VEGF
# corporal smooth muscle = details: for Acetylcholine ED50 (−Log (M)) / Sodium Nitroprusside ED50 (−Log (M)): 10 days after injection, mean SEM
# Procedure: as §1
# Isometric tension studies. Two corporal strips from each animal were suspended in 5 ml capacity organ baths containing Krebs physiological salt solution (122 mmol/liter NaCl. 4.7 mmol/liter KCl, 1.2 mmol/liter MgCl2, 2.5 mmol/liter CaCl2, 15.4 mmol/liter NaHCO3, 1.2 mmol/liter KH2PO4, and 5.5 mmol/liter glucose) maintained at 37° C. and oxygenated with 95% O2 and 5% CO2. Strips were attached to an adjustable force transducer and isometric responses were recorded on a multi-channel polygraph (Myograph F-60; Physiograph MK111-S; Narco Bio-Systems, Houston, Tex.). […] All subsequent testing was then performed at the optimal resting tension for each strip. Strips were sub-maximally pre-contracted with 10^−5 M norepinephrine, and after a contractile plateau was reached, acetylcholine (10^−8 to 10^−3 M) or sodium nitroprusside (10^−8 to 10^−4 M) was added cumulatively in logarithmic increments. Relaxation in response to each agent is expressed as a percentage of the active tension generated by the 10^−5 M dose of norepinephrine and converted to percentage of maximal response at each dose. These values were plotted against the negative logarithm of the agonist dose to produce relaxation dose-response curves. Logistic regression analysis with logit transformation was performed on the cumulative dose response curves from each treatment group to determine the ED25. ED50 and ED75 for each agent (Finney, Statistical Method in Biological Assay (3 ed.). London: Charles Griffin and Company LTD, p. 349-369 (1978), Kim et al, J Urol 151:198-205 (1994)).
# as §2, §3, §4
# Animals: 36 New Zealand White rabbits were fed either a normal rabbit diet (n=12) or a 1% cholesterol diet (n=24) (Harland Teklab, Madison, Wis.) for a total of 7.5 weeks.
# [4] = cholesterol-fed rabbits, IV VEGF 0.9 mg vs vehicle
# [5] = cholesterol-fed rabbits, intracavernosal 0.9 mg VEGF at week 6, 10 days after injection, mean±SEM
# [6] = cholesterol-fed rabbits, single intravenous bolus VEGF 0.9 mg vs vehicle
substance,measurement,setting,value
VEGF,VEGF ELISA optical density (OD) minus background,VEGF in corporal tissue; cholesterol-fed animals treated with VEGF (IC),0.168
same,VEGF ELISA optical density (OD),"VEGF in corporal tissue; cholesterol-fed animals, IV VEGF administration",0.128
same,VEGF immunoexpression,[1]; cholesterol-fed animals,19.67±1.38 arbitrary units
same,"VEGF protein immunoexpression, effect of IV VEGF","[1]; cholesterol-fed animals, IV VEGF 0.9 mg vs vehicle",augmented
same,VEGF immunoexpression,[1]; normal diet animals,37.6±1.12 arbitrary units
same,"VEGF expression, effect of VEGF therapy",[1]; single intracavernosal VEGF 0.9 mg vs vehicle,augmented
same,"smooth muscle content, effect of VEGF treatment",[2]; IC VEGF 0.9 mg vs vehicle,not affected
same,trabecular smooth muscle content,"[2]; IC VEGF 0.9 mg, relative to normal diet, vehicle-treated = 1.0, mean±SEM",0.82±0.016 arbitrary units
same,Acetylcholine Percent Maximal Relaxation,[3],94.5±8.41%
same,Sensitivity to Acetylcholine ED25,[3],−5.48 ± 0.33
same,Sensitivity to Acetylcholine ED75,[3],−3.50 ± 0.41
same,Sensitivity to Sodium Nitroprusside ED75,[3],−5.52 ± 0.18
same,Sodium Nitroprusside Percent Maximal Relaxation,[3],145 ± 8.26%
same,tumescence,adult rabbit penis,approximately 80%
same,Acetylcholine ED50 (−Log (M)),corporal smooth muscle; Cholesterol / IC VEGF 0.9 mg,4.94 0.25 −Log (M)
same,Sodium Nitroprusside ED50 (−Log (M)),corporal smooth muscle; Cholesterol / IC VEGF 0.9 mg,6.36 0.16 −Log (M)
same,Acetylcholine ED50 (−Log (M)),corporal smooth muscle; Cholesterol / IV VEGF 0.9 mg,6.33 0.40 −Log (M)
same,Sodium Nitroprusside ED50 (−Log (M)),corporal smooth muscle; Cholesterol / IV VEGF 0.9 mg,6.93 0.25 −Log (M)
same,"endothelium-dependent (acetylcholine) smooth muscle relaxation, effect of VEGF treatment","corporal smooth muscle; cholesterol-fed rabbits, IC VEGF 0.9 mg vs vehicle",not affected
same,"SNP-mediated, direct smooth muscle relaxation, effect of IV VEGF treatment",corporal smooth muscle; [4],significantly improved
same,"endothelium-dependent smooth muscle relaxation, effect of IV VEGF treatment",corporal smooth muscle; [4],augmented
same,maximal relaxation to acetylcholine,corporal smooth muscle; [5],78.6±6.2 grams
same,maximal relaxation to sodium nitroprusside,corporal smooth muscle; [5],113.9±6.3 grams
same,sensitivity (ED50) to acetylcholine relaxation,corporal smooth muscle; [5],4.94±0.25 (−Log)(M)
same,sensitivity to sodium nitroprusside relaxation at ED50,corporal smooth muscle; [5],6.36±0.16 (−Log)(M)
same,sodium nitroprusside relaxation ED75,corporal smooth muscle; [5],5.75±0.16 (−Log)(M)
same,"endothelium dependent (ACH-mediated) maximal corporal smooth muscle relaxation, effect of VEGF",corporal smooth muscle; [6],significantly augmented
same,"endothelium independent (SNP-mediated) maximal corporal smooth muscle relaxation, effect of VEGF",corporal smooth muscle; [6],significantly augmented
same,"sensitivity (ED50) to ACH, effect of VEGF",corporal smooth muscle; [6],enhanced
same,"sensitivity (ED50) to SNP, effect of VEGF",corporal smooth muscle; [6],enhanced
